Measured values taken from patent publication US20260373119A1, “NOVEL COMPOUND, AND COMPOSITION FOR PREVENTING OR TREATING HER2-POSITIVE CANCER, COMPRISING SAME” (EWHA UNIVERSITY - INDUSTRY COLLABORATION FOUNDATION, priority 2022, published 2026).

What was measured:
Type in all cases: cell-based
[1] = biological target: T1, ELF3-MED23 protein-protein interaction (Homo sapiens, UniProt Q9ULK4); test: SEAP reporter assay, ELF3-MED23 PPI inhibition (293T kidney cells); details: HEK-293T; 10 μM
T1 construct: followed by the addition of either the candidate compound or MED23 protein constructs; endogenous in cells; host or cells: 293T kidney cells (MED23 endogenous; GAL4-ELF3 transfected)
T1 sequence (Q9ULK4 1-1368): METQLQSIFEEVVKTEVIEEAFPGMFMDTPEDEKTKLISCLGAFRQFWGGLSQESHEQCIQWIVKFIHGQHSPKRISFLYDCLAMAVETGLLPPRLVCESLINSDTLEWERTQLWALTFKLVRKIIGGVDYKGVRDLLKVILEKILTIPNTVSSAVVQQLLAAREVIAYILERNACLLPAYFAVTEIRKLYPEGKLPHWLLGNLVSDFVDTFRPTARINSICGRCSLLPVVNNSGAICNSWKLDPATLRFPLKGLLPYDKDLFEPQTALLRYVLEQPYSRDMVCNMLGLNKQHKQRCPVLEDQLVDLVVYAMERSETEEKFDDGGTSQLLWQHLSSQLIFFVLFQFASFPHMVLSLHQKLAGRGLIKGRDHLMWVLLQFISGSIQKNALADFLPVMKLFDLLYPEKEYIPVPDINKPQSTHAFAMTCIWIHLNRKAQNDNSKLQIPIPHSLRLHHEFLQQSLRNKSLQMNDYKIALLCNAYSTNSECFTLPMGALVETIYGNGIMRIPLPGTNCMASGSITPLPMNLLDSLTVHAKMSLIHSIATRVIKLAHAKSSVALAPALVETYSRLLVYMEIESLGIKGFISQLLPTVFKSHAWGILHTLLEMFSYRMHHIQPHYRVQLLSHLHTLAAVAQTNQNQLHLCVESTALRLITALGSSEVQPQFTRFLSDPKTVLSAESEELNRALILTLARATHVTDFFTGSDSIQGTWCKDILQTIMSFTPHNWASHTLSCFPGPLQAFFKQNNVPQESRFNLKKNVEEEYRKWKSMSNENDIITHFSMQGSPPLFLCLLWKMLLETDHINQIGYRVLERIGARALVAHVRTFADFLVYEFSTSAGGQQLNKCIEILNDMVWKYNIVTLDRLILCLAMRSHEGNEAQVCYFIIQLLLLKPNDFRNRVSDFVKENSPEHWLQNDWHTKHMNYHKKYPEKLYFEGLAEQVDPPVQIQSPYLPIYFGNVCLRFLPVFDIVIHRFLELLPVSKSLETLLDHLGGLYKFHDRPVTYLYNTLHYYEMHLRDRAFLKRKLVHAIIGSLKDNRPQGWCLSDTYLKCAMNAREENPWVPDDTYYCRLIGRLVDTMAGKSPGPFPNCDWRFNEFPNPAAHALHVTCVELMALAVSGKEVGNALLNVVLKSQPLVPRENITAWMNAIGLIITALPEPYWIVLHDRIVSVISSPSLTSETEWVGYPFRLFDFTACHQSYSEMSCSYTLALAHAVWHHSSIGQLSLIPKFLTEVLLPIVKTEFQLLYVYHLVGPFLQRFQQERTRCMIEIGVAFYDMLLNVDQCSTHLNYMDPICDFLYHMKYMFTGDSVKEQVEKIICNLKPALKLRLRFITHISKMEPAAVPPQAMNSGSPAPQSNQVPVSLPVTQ
Protocol: To verify whether the D400 and H449 residues play a critical role in the ELF3-MED23 protein-protein interaction, a SEAP assay was performed. Specifically, 293T kidney cells were seeded at a density of 5×10^3 cells/well in a 96-well microplate (SPL, Korea) and cultured overnight. Subsequently, the cells were co-transfected with 100 ng of each plasmid using transfection-optimized medium (Welgene, Korea). The plasmids used included the SEAP reporter gene (pG5IL2SX) and GAL4-ELF3 expression vector (pBJ GAL4-ELF3). For transfection, the cells were incubated with WelFectQ (Welgene, Korea) for 3 hours, followed by the addition of either the candidate compound or MED23 protein constructs (pcDNA MED23^WT, K397A, D400A, H449G, and D400A/H449G). The treated cells were incubated for 12 hours. The candidate compound was added in an incubator at 5% CO2 and 37 °C, and the plate was incubated at 65 °C for 3 hours to inactivate all enzymes except SEAP (Secreted Alkaline Phosphatase). A mixture comprising 100 μL of substrate solution prepared with 1.19 μL of 0.1 M 4-methylumbelliferyl phosphate (Sigma, USA), 25 μL of inactivated medium, and 75 μL of double-distilled water was added, followed by the addition of 98.81 μL of 2 M diethanolamine (pH 10, Sigma, USA). The plate was incubated overnight at 37 °C. Subsequently, the fluorescence intensity was measured using a fluorometer (SPECTRAmax […], Molecular Devices, USA) at an excitation wavelength of 360 nm and an emission wavelength of 440 nm.
To further elaborate on the above findings, small molecule compounds that could affect the ELF3-MED23 PPI were designed and synthesized. Specifically, non-essential side chains were removed from gefitnib, and compounds were designed to include both hydrogen bond donors and acceptors for the D400 and H449 residues of MED23, respectively (FIG. 4A). Specifically, chalcones and pyrazolines were selected as core scaffolds, and 25 compounds (11 chalcones and 14 pyrazoline-based compounds) were prepared. The ELF3-MED23 PPI inhibitory activity of all prepared compounds was measured using a SEAP assay.

[2] = tested on: HCT15 (HER2-positive colorectal cancer cell line); test: antiproliferative effect, HCT15; details: Homo sapiens, HCT-15, 72 hours
Protocol: (§1) The antiproliferative effects were measured after treating Compounds 1 to 22 for 72 hours on HCT15 (HER2-positive colorectal cancer cell line), NCI-N87 (HER2-positive gastric cancer cell line), T47D (HER2-negative breast cancer cell line), and HeLa (HER2-negative cervical cancer cell line). As a result, strong antiproliferative effects were generally observed in the NCI-N87 cell line (Table 2).
(§2) The antiproliferative effects of the candidate compound, resulting from HER2 inhibition, were evaluated. Specifically, to confirm the anticancer effects of the candidate compound, cancer cells were seeded at a density of 10^4 cells/well in a 96-well cell culture plate for 20 hours. The cells were starved in serum-free media for 4 hours, followed by replacement with media containing the compound at specified concentrations. The cells were then incubated for 72 hours under conditions of 5% CO2 at 37 °C. Cell viability was determined by adding 5 μL of EZ-CytoX to each well and measuring absorbance at 450 nm. The measurements were performed using an ELISA Microplate Reader (VersaMax, Molecular Devices).

[3] = tested on: NCI-N87 (HER2-positive gastric cancer cell line); test: antiproliferative effect, NCI-N87; details: Homo sapiens, NCI-N87; 72 hours; HER2-positive
Protocol: as §1, §2

[4] = tested on: T47D (HER2-negative breast cancer cell line); test: antiproliferative effect, T47D; details: Homo sapiens, 72 hours
Protocol: as §1, §2

[5] = tested on: HeLa (HER2-negative cervical cancer cell line); test: antiproliferative effect, HeLa; details: Homo sapiens, 72 hours
Protocol: as §1, §2

| inhibition at 10 µM [1] [%] | IC50 [2] [µM] | IC50 [3] [µM] | IC50 [4] [µM] | IC50 [5] [µM] | SMILES |
| --- | --- | --- | --- | --- | --- |
| 70 | 7.64 ± 0.09 | 3.45 ± 0.05 | 1.21 ± 0.02 | 9.73 ± 0.04 | COc1ccc(/C=C/C(=O)c2cccc(O)c2)c2ccccc12 [Compound 3, 1-(3-Hydroxyphenyl)-3-(4-methoxynaphthalen-1-yl)-propenone] |
| 80 | 12 ± 0.17 | 4.82 ± 0.1 | 17.57 ± 0.13 | 25.64 ± 0.09 | O=C(/C=C/c1ccc(Cl)cc1)c1cccc(O)c1 [Compound 4, 3-(4-Chlorophenyl)-1-(3-hydroxyphenyl)-propenone] |
| 60 | 8.97 ± 0.17 | 17.82 ± 0.17 | 9.04 ± 0.07 | 30.02 ± 0.18 | O=C(/C=C/c1ccc(O)cc1)c1cccc(O)c1 [Compound 5, 3-(4-Hydroxyphenyl)-1-(3-hydroxyphenyl)-propenone] |
| 90 | > 50 | 44.9 ± 0.8 | > 50 | > 50 | COc1ccc(/C=C/C(=O)c2ccccc2O)cc1 [Compound 6, 1-(2-Hydroxyphenyl)-3-(4-methoxyphenyl)-propenone] |
| 50 | > 50 | > 50 | 27.89 ± 0.06 | > 50 | O=C(/C=C/c1ccc(O)cc1)c1ccccc1O [Compound 9, 3-(4-Hydroxyphenyl)-1-(2-hydroxyphenyl)-propenone] |
| 80 | 14.36 ± 0.12 | 14.38 ± 0.06 | 8.96 ± 0.02 | 5.54 ± 0.21 | O=C(/C=C/c1ccc(Cl)cc1)c1ccccc1O [Compound 10, 3-(4-Chlorophenyl)-1-(2-hydroxyphenyl)-propenone] |
| 58 | > 50 | > 50 | > 50 | > 50 | COc1ccc(C2CC(c3cccc(O)c3)=NN2C(C)=O)cc1 (centres unmarked) [Compound 13, 1-[3-(3-Hydroxyphenyl)-5-(4-methoxyphenyl)-4,5-dihydropyrazol-1-yl]-ethanone] |
| 37 | > 50 | > 50 | > 50 | > 50 | CC(=O)N1N=C(c2cccc(O)c2)CC1c1ccc(O)cc1 (centres unmarked) [Compound 16, 1-[5-(4-Hydroxyphenyl)-3-(3-hydroxyphenyl)-4,5-dihydropyrazol-1-yl]-ethanone] |
| 87 |  |  |  |  | CCC(=O)N1N=C(c2cccc(O)c2)CC1c1ccc(OC)cc1 (centres unmarked) [Compound 23, 1-[3-(3-Hydroxyphenyl)-5-(4-methoxyphenyl)-4,5-dihydropyrazol-1-yl]-propan-1-one] |
| 34 |  |  |  |  | CCC(=O)N1N=C(c2cccc(O)c2)CC1c1cccs1 (centres unmarked) [Compound 24, 1-[3-(3-Hydroxyphenyl)-5-thiophen-2-yl-4,5-dihydropyrazol-1-yl]-propan-1-one] |

Second part, the compound before the results:

| SMILES | inhibition at 10 µM [1] [%] | IC50 [2] [µM] | IC50 [3] [µM] | IC50 [4] [µM] | IC50 [5] [µM] |
| --- | --- | --- | --- | --- | --- |
| O=C(/C=C/c1ccco1)c1cccc(O)c1 [Compound 1, 3-Furan-2-yl-1-(3-hydroxyphenyl)-propenone] | 86 | 29.66 ± 0.14 | 13.5 ± 0.29 | 8.48 ± 0.02 | 19.5 ± 0.04 |
| COc1ccc(/C=C/C(=O)c2cccc(O)c2)cc1 [Compound 2, 1-(3-Hydroxyphenyl)-3-(4-methoxyphenyl)-propenone] | 41 | 8.51 ± 0.01 | 10.7 ± 0.31 | 18.9 ± 0.2 | 9.85 ± 0.37 |
| COc1ccc(/C=C/C(=O)c2ccccc2O)c2ccccc12 [Compound 7, 1-(2-Hydroxyphenyl)-3-(4-methoxynaphthalen-1-yl)-propenone] | 80 | 14.18 ± 0.05 | 11.4 ± 0.12 | 15.56 ± 0.15 | 16.13 ± 0.08 |
| O=C(/C=C/c1ccco1)c1ccccc1O [Compound 8, 3-Furan-2-yl-1-(2-hydroxyphenyl)-propenone] | 50 | > 50 | > 50 | > 50 | 42.19 ± 0.01 |
| O=C(/C=C/c1cccs1)c1ccccc1O [Compound 11, 1-(2-Hydroxyphenyl)-3-thiophen-2-yl-propenone] | 50 | > 50 | 47.76 ± 0.22 | > 50 | 44.31 ± 0.11 |
| CC(=O)N1N=C(c2cccc(O)c2)CC1c1ccco1 (centres unmarked) [Compound 12, 1-[5-Furan-2-yl-3-(3-hydroxyphenyl)-4,5-dihydropyrazol-1-yl]-ethanone] | 58 | > 50 | > 50 | > 50 | > 50 |
| COc1ccc(C2CC(c3cccc(O)c3)=NN2C(C)=O)c2ccccc12 (centres unmarked) [Compound 14, 1-[3-(3-Hydroxyphenyl)-5-(4-methoxynaphthalen-1-yl)-4,5-dihydropyrazol-1-yl]-ethanone] | 14 | 19.5 ± 0.41 | 42.4 ± 0.86 | 5.57 ± 0.26 | 0.69 |
| CC(=O)N1N=C(c2ccccc2O)CC1c1ccco1 (centres unmarked) [Compound 17, 1-[5-Furan-2-yl-3-(2-hydroxyphenyl)-4,5-dihydropyrazol-1-yl]-ethanone] | 23 | > 50 | > 50 | > 50 | > 50 |
| CCC(=O)N1N=C(c2cccc(O)c2)CC1c1ccc(Cl)cc1 (centres unmarked) [Compound 25, 1-[5-(4-Chlorophenyl)-3-(3-hydroxyphenyl)-4,5-dihydropyrazol-1-yl]-propan-1-one] | 42 |  |  |  |  |
